# Measured values as given in article PMC3684770 (Free Radical Biology & Medicine, 2013).
# Counter-ions that a name gives are not always drawn. Like-named read-outs stand apart in the source and are kept apart here.
# Assays:
# [1] = test system: Nrf2-ARE pathway; experiment: ARE reporter assay in CHO 4xARE-TK-GFP cells (Spectrum library hits); settings: for Toxic dose: lowest dose at which a reduction in GFP fluorescence was observed; for Fold GFP induction: average fold over baseline at the maximal response, CHO cells
# Protocol: The Z′ score was calculated as follows Z′=1−(3SD^++3SD^−)/(Ave^+–Ave^−) where SD^+ = standard deviation of positive control wells; SD^− = standard deviation of negative control wells; Ave^+ = average fluorescence reading of positive control wells; Ave^− = average fluorescence reading of negative control wells.
# Media was removed by hand and replaced (1 compound/well) with the Spectrum library diluted to 10 μM in 0.1% DMSO using a Q-bot liquid handling system (Genetix, New Milton, UK). […] The TK-GFP CHO ARE cell line was screened twice in a single point assay and the control TK-GFP CHO cell line was screened once to eliminate false positives.
# The compounds were applied in triplicate to confluent cells in 96 well plates in serum free medium for 24 hours and the induction of GFP measured in a fluorescence plate reader.
# In order to screen the Spectrum collection of 2000 molecules the reporter assay was optimised in […]. To assess the suitability of the assay for library screening, a Z’ score calculation was performed by treating alternate wells with vehicle (0.1% DMSO) and 10 µM Ebselen as a positive control (see calculation in Methods). […] The library was subsequently screened at a single point concentration of 10µM for every compound. Drug library dilutions and plating were performed with a Q-BOT liquid handling system and both the 4xARE-TK-GFP reporter cell line and TK-GFP control cell line were tested for their response to the compounds. Hits were identified as having data points more than three standard deviations above the background level, which was the average value of 24 wells treated with vehicle (0.1% DMSO) only. Hit compounds were checked to see if they generated a response in the control cell line, for example by non-specific activation of transcription or autofluorescence. […] The library screen was repeated once in the 4xARE –TK-CHO cell line and compounds classed as hits in both screens were taken forward for further assessment.
# [2] = test system: 1321N1 astrocyte cell line; experiment: 1321N1 oxidative stress assay (serum withdrawal, DCF); settings: for Emax: 1321-N1, 24 h, read-out: 1321N1 oxidative stress assay Max reduction; for 1321N1 oxidative stress assay Toxic dose: minimum dose at which toxicity was observed; for 1321N1 oxidative stress assay Max reduction: maximum % inhibition of DCF signal
# Protocol: (§1) Media were then replaced with serum-free, phenol-free media for 5 h.
# [3] = test system: NSC34 cells; experiment: NSC34 oxidative stress assay (serum withdrawal, DCF); settings: for Emax: Mus musculus, NSC-34, 24 h, read-out: NSC34 oxidative stress assay Max reduction; for NSC34 oxidative stress assay Toxic dose: minimum dose at which toxicity was observed; for NSC34 oxidative stress assay Max reduction: maximum % inhibition of DCF signal, negative = prooxidant
# Protocol: as §1
# [4] = test system: C6 astrocyte cell line; experiment: C6 oxidative stress assay (serum withdrawal, DCF); settings: for Emax: 24 h, read-out: C6 oxidative stress assay Max reduction; for IC50: read-out: C6 oxidative stress assay IC50; for C6 oxidative stress assay Toxic dose: minimum dose at which toxicity was observed; for C6 oxidative stress assay Max reduction: maximum % inhibition of DCF signal
# Protocol: as §1
# [5] = Homo sapiens, 1321-N1, read-out: 1321N1 oxidative stress assay IC50
# [6] = CHO ARE reporter, 7-point concentration response
# [7] = read-out: 1321N1 oxidative stress assay IC50, 24-h preconditioning, 6-h serum withdrawal, DCF fluorescence
# [8] = 24-h preconditioning, 6-h serum withdrawal, DCF fluorescence
Structure (SMILES),"maximal fold induction ([1]; Cricetulus griseus, CHO, 24 h, read-out: Fold GFP induction)",Toxic dose [1],Emax ([2]; Homo sapiens),1321N1 oxidative stress assay Toxic dose [2],Emax [3],NSC34 oxidative stress assay Toxic dose [3],"Emax ([4]; Rattus norvegicus, Astrocyte)","IC50 ([4]; Rattus norvegicus, Astrocyte)",C6 oxidative stress assay Toxic dose [4],EC50 ([1]; Cricetulus griseus),"IC50 [2, 5]",Fold GFP induction ([1]; 24 h),"EC50 [1, 6]",1321N1 oxidative stress assay Max reduction [2],"IC50 [2, 7]",NSC34 oxidative stress assay Max reduction [3],C6 oxidative stress assay Max reduction [4],"IC50 [4, 8]","EC90 ([1]; Cricetulus griseus, read-out: approximate EC90)"
C=CC(C1=CC(=O)C(OC)=CC1=O)c1ccccc1 (stereo not drawn) [4-Methoxydalbergione],2.11,100 µM,43%,none,-44%,none,14%,2.5 µM,none,–,–,–,–,–,–,–,–,–,–
CCc1cccc(CC)c1N(COC)C(=O)CCl [Alachlor],–,–,83%,none,0%,–,62%,6.22 µM,–,3.29 µM,1.97 µM,–,–,–,–,–,–,–,–
COc1cc(O)cc(OC)c1OC [Antiarol],–,100 µM,35%,none,-50%,10 µM,23%,3.05 µM,10 µM,–,–,–,–,–,–,–,–,–,–
S=C=NCc1ccccc1 [Benzyl isothiocyanate],–,None,8%,none,-28%,none,27%,3.47 µM,none,24 µM,–,–,–,–,–,–,–,–,–
ClC1=C(Cl)C2(Cl)C3C(Cl)C(Cl)CC3C1(Cl)C2(Cl)Cl (stereo not drawn) [Chlordane],–,100 µM,68%,none,0%,3 µM,20%,3.57 µM,none,9.18 µM,–,1.56 fold,–,–,–,–,–,–,–
CC1=C2C(=CO[C@H](C)[C@H]2C)C(O)=C(C(=O)O)C1=O [Citrinin],–,30 µM,28%,none,0%,none,23%,20 µM,none,4.1 µM,0.338 µM,3.26 fold,–,–,–,–,–,–,–
C=CC(C1=CC(=O)C=CC1=O)c1ccccc1 (stereo not drawn) [Dalbergione],–,30 µM,38%,None,0%,None,40%,46 µM,None,2.47 µM,64 µM,–,–,–,–,–,–,–,–
CC1(C)C(=O)C=C[C@]2(C)[C@H]3CC[C@@]4(C)[C@H](c5ccoc5)OC(=O)[C@H]5O[C@]54[C@]3(C)[C@H](O)C[C@@H]12 [Deacetylgedunin],–,30 µM,28%,10 µM,0%,None,70%,5.36 µM,None,3.5 µM,2.37 µM,3.05 fold,–,–,–,–,–,–,–
CC1(C)C2CC(=O)O[C@@]3(C)C4=CC(=O)O[C@@H](c5ccoc5)[C@]4(C)CCC3[C@@]2(C)C=C[C@H]1O (stereo partly drawn) [Deoxyandirobin lactone],–,100 µM,65%,None,0%,None,38%,2.87 µM,None,11.1 µM,1.64 µM,–,–,–,–,–,–,–,–
CC(=O)O[C@@H]1C[C@H]2C(C)(C)C(=O)C=C[C@]2(C)[C@H]2CC[C@]3(C)C(=CC(=O)O[C@H]3c3ccoc3)[C@@]21C [Deoxygedunin],–,30 µM,–,10 µM,–,10 µM,–,–,none,–,–,1.82 fold,1.15 µM,25%,1.41 µM,7%,61%,2.19 µM,–
"O=c1c2ccccc2[se]n1-c1ccccc1 [Ebselen, reference compound]",–,100 µM,20%,none,-80%,none,30%,–,none,4 µM,0.193 µM,–,–,–,–,–,–,–,~10 µM
O=C(CC[N+](=O)[O-])OC[C@H]1O[C@@H](O)[C@H](OC(=O)CC[N+](=O)[O-])[C@@H](OC(=O)CC[N+](=O)[O-])[C@@H]1OC(=O)CC[N+](=O)[O-] [Endecaphyllin X],–,None,–,none,–,10 µM,–,–,none,–,–,2.15 fold,18.8 µM,56%,–,0%,40%,3.15 µM,–
"C=C(CC)C(=O)c1ccc(OCC(=O)O)c(Cl)c1Cl [Ethacrynic acid, reference compound]",–,100 µM,25%,–,-30%,10 µM,31%,3.01 µM,–,14 µM,3.01 µM,–,–,–,–,–,–,–,–
CC(=O)O[C@H]1CCC2(C)C3=C(CCC2C1(C)C)[C@@]1(C)CC[C@@H](C(C)CCC=C(C)C)[C@]1(C)CC3 (stereo partly drawn) [Euphol acetate],–,100 µM,–,none,–,none,–,–,none,–,–,2.20 fold,–,38%,18 µM,-43%,0%,–,–
O=C(/C=C/c1ccc(O)cc1)c1ccc(O)cc1O [Isoliquiritigenin],–,30 µM,50%,none,-6%,1 µM,46%,28 µM,none,2.52 µM,1.78 µM,–,–,–,–,–,–,–,–
"CC(COc1ccccc1)NC(C)C(O)c1ccc(O)cc1 (stereo not drawn) [Isoxsuprine hydrochloride, reference compound]",–,100 µM,–,none,-16%,none,40%,23 µM,none,–,–,–,–,–,–,–,–,–,–
OC[C@H]1O[C@@H](n2cnc3c(NCc4ccco4)ncnc32)[C@H](O)[C@@H]1O [Kinetin riboside],–,30 µM,25%,3 µM,0%,3 µM,40%,3.84 µM,10 µM,–,0.246 µM,–,–,–,–,–,–,–,–
CCCCCc1c2c(cc(O)c1C(=O)O)OC(=O)c1c(cc(OC)cc1C(=O)CCCC)O2 [Lobaric acid],–,100 µM,0%,none,-26%,none,9%,3.14 µM,none,17 µM,–,–,–,–,–,–,–,–,–
